In US20230038929A1, “Fused Tricyclic Heterocyclic Compounds and Uses Thereof” (Verge Analytics, Inc., priority 2019, published 2023):
Counter-ions that a name gives are not always drawn. Like-named read-outs stand apart in the source and are kept apart here.

What was measured:
Type in all cases: biochemical
PI3Kδ (p110δ/p85α) = target: T1, PI3Kδ (p110δ/p85α) (Homo sapiens, UniProt O00329)
T1 construct: Full-length N-terminal GST-; GST (N); host or cells: SF9 cells (baculovirus)

PI3Kβ (p110β/p85α) = target: T2, PI3Kβ (p110β/p85α) (Homo sapiens, UniProt P42338)
T2 construct: Full-length N-terminal GST-; GST (N); host or cells: SF9 cells (baculovirus)

[1] = target: T3, Full length human recombinant PIKFYVE (Homo sapiens, UniProt Q9Y2I7, L932S/Q1183K/Q995L/S1033A/S696N/T998S); assay: Inhibition of PIKfyve (microfluidic electrophoresis kinase assay)
T3 construct: Full length human recombinant PIKFYVE; purchased Carna Biosciences (Kobe, Japan); host or cells: baculovirus expression system (insect cells)
Method: Biological Example 1: Inhibition of PIKfyve
Full length human recombinant PIKFYVE expressed in baculovirus expression system as N-terminal GST-fusion protein (265 kDa) was obtained from Carna Biosciences (Kobe, Japan). The kinase substrate was prepared by mixing and sonicating fluorescently-labeled phosphatidylinositol 3-phosphate (PI3P) with phospho-L-serine (PS) at a 1:10 ratio in 50 mM HEPES buffer pH7.5.
The kinase reactions were assembled in 384-well plates (Greiner) in a total volume of […] as follows. Kinase protein was pre-diluted in an assay buffer comprising 25 mM HEPES, pH 7.5, 1 mM DTT, 2.5 mM MgCl2, and 2.5 mM MnCl2, and 0.005% Triton X-100, and dispensed into a 384-well plate (10 μL per well). Test compounds were serially pre-diluted in DMSO and added to the protein samples by acoustic dispensing (Labcyte Echo). The concentration of DMSO was equalized to 1% in all samples. All test compounds were tested at 12 concentrations. Apilimod was used as a reference compound and was tested in identical manner in each assay plate. Control samples (0%-inhibition, in the absence of inhibitor, DMSO only) and 100%-inhibition (in the absence of enzyme) were assembled in replicates of four and were used to calculate %-inhibition in the presence of compounds. The reactions were initiated by addition of 10 μL of 2× PI3P/PS substrate supplemented with ATP. The final concentration of enzyme was 2 nM, the final concentration of ATP was […], and the final concentration of PI3P/PS substrate was 1 μM (PI3P). The kinase reactions were allowed to proceed for 3 h at room temperature. Following incubation, the reactions were quenched by addition of […] of termination buffer (100 mM HEPES, pH 7.5, 0.01% Triton X-100, 20 mM EDTA). Terminated plates were analyzed on a microfluidic electrophoresis instrument (Caliper LabChip® 3000, Caliper Life Sciences/Perkin Elmer). The change in the relative fluorescence intensity of the PI(3)P substrate and PI(3,5)P product peaks was measured. The activity in each test sample was determined as the product to sum ratio (PSR): P/(S+P), where P is the peak height of the product, and S is the peak height of the substrate. Percent inhibition (Pinh) was determined using the following equation:
Pinh=(PSR0%inh−PSRcompound)/(PSR0%inh−P100%inh)*100
in which PSRcompound is the product/sum ratio in the presence of compound, PSR0%inh is the product/sum ratio in the absence of compound, and the PSR100%inh is the product/sum ratio in the absence of the enzyme. To determine the ICso of test compounds (50%-inhibition) the %-inh cdata (Pinh versus compound concentration) were fitted by a four-parameter sigmoid dose-response model using XLfit software (IDBS).

PI3Kα (p110α/p85α) = target: T4, PI3Kα (p110α/p85α) (Homo sapiens, UniProt P42336)
T4 construct: Full-length N-terminal; FLAG (N); host or cells: SF9 cells (baculovirus)

[2] = 0.25 nM enzyme, ATP 90 μM, 1 μM PIP2, 3 h room temperature, read-out: PI3Kδ IC50
[3] = 1 nM enzyme, ATP 60 μM, 1 μM PIP2, 3 h room temperature, read-out: PI3Kβ IC50
[4] = 2 nM enzyme, 1 μM PI3P, 3 h at room temperature, 12 concentrations, read-out: PIKfyve IC50
[5] = 0.5 nM enzyme, ATP 90 μM, 1 μM PIP2, 3 h room temperature, read-out: PI3Kα IC50

T2 sequence (P42338 whole entry): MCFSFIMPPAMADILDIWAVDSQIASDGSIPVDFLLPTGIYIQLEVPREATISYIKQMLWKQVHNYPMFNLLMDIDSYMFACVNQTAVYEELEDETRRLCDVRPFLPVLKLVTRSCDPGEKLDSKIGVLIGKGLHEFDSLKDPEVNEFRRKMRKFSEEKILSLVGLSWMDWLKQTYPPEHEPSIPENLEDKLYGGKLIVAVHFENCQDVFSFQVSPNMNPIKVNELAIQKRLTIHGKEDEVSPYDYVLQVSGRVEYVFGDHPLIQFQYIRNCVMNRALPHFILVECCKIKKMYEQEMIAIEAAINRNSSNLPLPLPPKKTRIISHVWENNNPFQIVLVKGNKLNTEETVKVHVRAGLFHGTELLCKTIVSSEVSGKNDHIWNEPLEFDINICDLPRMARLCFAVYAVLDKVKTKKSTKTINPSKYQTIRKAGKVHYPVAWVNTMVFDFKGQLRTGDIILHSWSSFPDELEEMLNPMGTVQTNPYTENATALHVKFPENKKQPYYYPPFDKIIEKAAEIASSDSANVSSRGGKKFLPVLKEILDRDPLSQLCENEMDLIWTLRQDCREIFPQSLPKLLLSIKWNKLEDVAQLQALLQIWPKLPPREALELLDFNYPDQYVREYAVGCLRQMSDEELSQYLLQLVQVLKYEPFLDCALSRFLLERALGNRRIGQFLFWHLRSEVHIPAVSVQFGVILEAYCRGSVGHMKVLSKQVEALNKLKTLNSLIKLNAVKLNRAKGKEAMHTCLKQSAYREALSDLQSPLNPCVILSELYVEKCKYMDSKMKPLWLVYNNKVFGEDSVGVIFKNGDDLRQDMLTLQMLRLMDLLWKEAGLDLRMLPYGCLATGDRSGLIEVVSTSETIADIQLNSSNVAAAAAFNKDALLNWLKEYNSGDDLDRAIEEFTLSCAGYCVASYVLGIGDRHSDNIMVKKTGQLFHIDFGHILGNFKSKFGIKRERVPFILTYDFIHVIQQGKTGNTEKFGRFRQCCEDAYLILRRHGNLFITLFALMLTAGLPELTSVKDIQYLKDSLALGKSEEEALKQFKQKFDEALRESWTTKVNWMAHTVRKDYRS
T2 sequence (P27986 whole entry, further chain): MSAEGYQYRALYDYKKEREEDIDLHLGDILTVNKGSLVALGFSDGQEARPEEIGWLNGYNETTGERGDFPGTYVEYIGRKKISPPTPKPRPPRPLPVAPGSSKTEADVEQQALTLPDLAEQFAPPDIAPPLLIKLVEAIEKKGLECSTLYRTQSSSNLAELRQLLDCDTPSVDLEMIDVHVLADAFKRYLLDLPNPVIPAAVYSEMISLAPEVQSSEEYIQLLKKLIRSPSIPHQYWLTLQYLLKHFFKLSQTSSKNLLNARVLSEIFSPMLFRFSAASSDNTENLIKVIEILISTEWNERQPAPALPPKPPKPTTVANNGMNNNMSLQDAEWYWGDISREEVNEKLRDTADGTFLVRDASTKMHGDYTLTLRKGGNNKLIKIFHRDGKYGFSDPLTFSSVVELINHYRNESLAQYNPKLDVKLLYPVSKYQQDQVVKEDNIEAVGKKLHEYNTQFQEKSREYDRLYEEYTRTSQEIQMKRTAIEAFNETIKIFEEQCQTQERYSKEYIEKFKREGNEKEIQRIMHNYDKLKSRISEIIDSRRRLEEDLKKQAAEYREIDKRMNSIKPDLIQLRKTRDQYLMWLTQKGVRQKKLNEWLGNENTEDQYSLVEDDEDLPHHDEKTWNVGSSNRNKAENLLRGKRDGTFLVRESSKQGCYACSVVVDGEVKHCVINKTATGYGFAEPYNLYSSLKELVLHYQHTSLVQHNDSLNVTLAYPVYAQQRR
T1 sequence (O00329 whole entry): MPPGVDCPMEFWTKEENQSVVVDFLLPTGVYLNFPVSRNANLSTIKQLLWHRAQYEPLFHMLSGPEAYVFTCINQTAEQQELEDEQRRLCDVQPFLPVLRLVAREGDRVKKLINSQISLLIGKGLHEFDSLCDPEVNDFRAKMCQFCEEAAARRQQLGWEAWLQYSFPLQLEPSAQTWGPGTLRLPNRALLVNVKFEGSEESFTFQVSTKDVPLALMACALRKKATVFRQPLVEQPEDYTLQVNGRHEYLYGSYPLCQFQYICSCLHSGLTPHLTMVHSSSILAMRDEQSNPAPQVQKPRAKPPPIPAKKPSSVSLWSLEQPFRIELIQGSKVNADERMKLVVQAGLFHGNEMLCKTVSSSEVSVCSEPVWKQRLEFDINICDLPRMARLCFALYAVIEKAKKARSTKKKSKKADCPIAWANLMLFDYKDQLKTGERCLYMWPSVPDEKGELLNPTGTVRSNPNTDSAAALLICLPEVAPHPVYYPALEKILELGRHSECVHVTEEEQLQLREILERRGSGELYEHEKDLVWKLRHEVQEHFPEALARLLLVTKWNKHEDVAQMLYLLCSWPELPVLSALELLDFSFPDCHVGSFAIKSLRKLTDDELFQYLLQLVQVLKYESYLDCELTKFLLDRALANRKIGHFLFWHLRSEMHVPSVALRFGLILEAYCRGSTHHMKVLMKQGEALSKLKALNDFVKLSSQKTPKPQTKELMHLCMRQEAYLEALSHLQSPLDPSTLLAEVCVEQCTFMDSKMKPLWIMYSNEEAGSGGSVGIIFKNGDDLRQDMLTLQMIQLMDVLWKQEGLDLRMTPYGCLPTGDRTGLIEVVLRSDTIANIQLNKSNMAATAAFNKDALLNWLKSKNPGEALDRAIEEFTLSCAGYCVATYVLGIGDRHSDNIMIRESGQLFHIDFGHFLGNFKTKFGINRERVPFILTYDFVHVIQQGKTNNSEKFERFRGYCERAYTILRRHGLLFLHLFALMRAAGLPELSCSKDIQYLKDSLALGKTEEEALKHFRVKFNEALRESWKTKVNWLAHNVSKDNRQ
T1 sequence (P27986 whole entry, further chain): as the sequence (P27986 whole entry, further chain) above
T3 sequence (Q9Y2I7 whole entry S696N/L932S/Q995L/T998S/S1033A/Q1183K): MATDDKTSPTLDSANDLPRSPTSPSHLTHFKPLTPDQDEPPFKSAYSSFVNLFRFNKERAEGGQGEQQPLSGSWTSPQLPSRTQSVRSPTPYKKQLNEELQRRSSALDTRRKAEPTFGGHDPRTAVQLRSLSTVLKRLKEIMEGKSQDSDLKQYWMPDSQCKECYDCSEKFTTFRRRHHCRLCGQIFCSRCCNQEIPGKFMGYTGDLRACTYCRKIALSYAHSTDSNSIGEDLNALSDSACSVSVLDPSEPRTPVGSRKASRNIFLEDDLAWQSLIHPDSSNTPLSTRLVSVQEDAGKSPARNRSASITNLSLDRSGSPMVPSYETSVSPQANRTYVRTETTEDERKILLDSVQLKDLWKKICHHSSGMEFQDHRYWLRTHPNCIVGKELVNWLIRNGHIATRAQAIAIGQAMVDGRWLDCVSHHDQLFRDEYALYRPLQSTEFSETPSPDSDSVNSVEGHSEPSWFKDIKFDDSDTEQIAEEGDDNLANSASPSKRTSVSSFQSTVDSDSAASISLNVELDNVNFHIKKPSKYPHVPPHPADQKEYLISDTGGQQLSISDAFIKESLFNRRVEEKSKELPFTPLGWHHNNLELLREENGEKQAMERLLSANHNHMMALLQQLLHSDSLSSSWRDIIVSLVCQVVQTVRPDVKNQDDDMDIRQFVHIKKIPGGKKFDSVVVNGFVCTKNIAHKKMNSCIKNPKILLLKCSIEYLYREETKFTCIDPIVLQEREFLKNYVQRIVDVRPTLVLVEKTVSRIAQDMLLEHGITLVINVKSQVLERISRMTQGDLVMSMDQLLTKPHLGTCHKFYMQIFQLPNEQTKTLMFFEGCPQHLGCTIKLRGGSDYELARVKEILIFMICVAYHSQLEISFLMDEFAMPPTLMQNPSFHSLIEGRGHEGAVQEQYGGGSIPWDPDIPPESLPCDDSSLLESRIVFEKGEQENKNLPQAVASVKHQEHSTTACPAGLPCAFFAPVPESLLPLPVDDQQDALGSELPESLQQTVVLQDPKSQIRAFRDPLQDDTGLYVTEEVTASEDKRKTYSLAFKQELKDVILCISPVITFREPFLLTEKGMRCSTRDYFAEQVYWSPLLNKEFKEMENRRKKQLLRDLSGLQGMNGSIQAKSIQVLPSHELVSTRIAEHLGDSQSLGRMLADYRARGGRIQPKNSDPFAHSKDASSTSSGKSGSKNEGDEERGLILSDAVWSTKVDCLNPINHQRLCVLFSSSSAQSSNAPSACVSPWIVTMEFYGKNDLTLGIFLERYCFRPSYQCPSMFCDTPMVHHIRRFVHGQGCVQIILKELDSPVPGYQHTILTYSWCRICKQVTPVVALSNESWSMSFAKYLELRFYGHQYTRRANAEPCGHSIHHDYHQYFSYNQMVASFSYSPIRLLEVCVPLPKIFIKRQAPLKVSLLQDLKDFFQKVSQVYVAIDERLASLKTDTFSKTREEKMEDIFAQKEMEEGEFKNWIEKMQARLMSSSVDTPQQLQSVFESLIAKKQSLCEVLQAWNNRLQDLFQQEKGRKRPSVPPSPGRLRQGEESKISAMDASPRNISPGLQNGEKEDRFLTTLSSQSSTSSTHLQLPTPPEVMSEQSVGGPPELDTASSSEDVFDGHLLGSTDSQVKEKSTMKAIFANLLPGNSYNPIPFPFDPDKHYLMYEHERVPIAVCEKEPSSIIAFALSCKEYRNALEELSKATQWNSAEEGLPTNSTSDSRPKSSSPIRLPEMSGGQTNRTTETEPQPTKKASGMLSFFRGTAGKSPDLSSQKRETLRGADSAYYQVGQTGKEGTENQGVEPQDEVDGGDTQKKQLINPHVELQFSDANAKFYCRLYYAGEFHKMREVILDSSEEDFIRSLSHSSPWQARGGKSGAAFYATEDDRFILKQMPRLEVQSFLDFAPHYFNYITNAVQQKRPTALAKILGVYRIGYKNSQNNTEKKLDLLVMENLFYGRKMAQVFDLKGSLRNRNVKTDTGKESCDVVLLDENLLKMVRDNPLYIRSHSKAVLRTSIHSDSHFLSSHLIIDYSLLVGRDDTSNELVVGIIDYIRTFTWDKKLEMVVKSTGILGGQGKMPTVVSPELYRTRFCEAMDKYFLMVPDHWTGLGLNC

| Compound | IC50 (PI3Kδ (p110δ/p85α); [2]) [nM] | IC50 (PI3Kβ (p110β/p85α); [3]) [nM] | IC50 [1, 4] [nM] | IC50 (PI3Kα (p110α/p85α); [5]) [nM] | further results |
| --- | --- | --- | --- | --- | --- |
| c1cncc(Nc2nc(N3CCOCC3)c3oc4ncccc4c3n2)c1 [Example 39, 4-morpholino-N-(pyridin-3-yl)pyrido[3′,2′:4,5]furo[3,2-d]pyrimidin-2-amine] | 60 | 370 | 2180 | 82 | – |
| O=C(Nc1nc(N2CCOCC2)c2oc3ncccc3c2n1)Oc1ccccc1 [Example 22, phenyl(4-morpholinopyrido[3′,2′:4,5]furo[3,2-d]pyrimidin-2-yl)carbamate hydrochloride] | – | – | – | – | IC50 (PI3Kδ (p110δ/p85α)): 464 nM; IC50 (PI3Kβ (p110β/p85α)): 2700 nM; IC50 [1]: 6400 nM; IC50 (PI3Kα (p110α/p85α)): 802 nM |
| Cn1ccnc1Nc1nc(N2CCOCC2)c2oc3ncccc3c2n1 [Example 12, N-(1-Methyl-1H-imidazol-2-yl)-4-morpholinopyrido[3′,2′:4,5]furo[3,2-d]pyrimidin-2-amine] | 1890 | 6540 | > 10000 | 1640 | – |
| c1cnc2oc3c(N4CCOCC4)nc(Nc4cc(CC5CCC5)n[nH]4)nc3c2c1 [Example 56, N-(3-(cyclobutylmethyl)-1H-pyrazol-5-yl)-4-morpholinopyrido[3′,2′:4,5]furo[3,2-d]pyrimidin-2-amine hydrochloride] | 24 | 937 | 1790 | 47 | – |
| c1cnc2oc3c(N4CCOCC4)nc(Nc4ccncc4)nc3c2c1 [Example 38, 4-morpholino-N-(pyridin-4-yl)pyrido[3′,2′:4,5]furo[3,2-d]pyrimidin-2-amine] | 1490 | 5820 | > 10000 | 8740 | – |
| c1ccc(Nc2nc(N3CCOCC3)c3oc4ncccc4c3n2)nc1 [Example 40, 4-morpholino-N-(pyridin-2-yl)pyrido[3′,2′:4,5]furo[3,2-d]pyrimidin-2-amine] | 66 | 1190 | 2770 | 102 | – |
| FC(F)(F)c1cccc(-c2cc(Nc3nc(N4CCOCC4)c4oc5ncccc5c4n3)[nH]n2)c1 [Example 18, 4-morpholino-N-(3-(3-(trifluoromethyl)phenyl)-1H-pyrazol-5-yl)pyrido[3′,2′:4,5]furo[3,2-d]pyrimidin-2-amine hydrochloride] | – | – | 1630 | – | – |
| O=C(Nc1nc(N2CCOCC2)c2oc3ncccc3c2n1)c1ccccc1 [Example 3] | – | – | > 10000 | – | – |
| c1ccc(CNc2nc(N3CCOCC3)c3oc4ncccc4c3n2)cc1 [Example 2, N-Benzyl-4-morpholinopyrido[3′,2′:4,5]furo[3,2-d]pyrimidin-2-amine] | – | – | > 10000 | – | – |
| C[C@H](Nc1nc(N2CCOCC2)c2oc3ncccc3c2n1)C1CC1 [Example 36, (S)-N-(1-cyclopropylethyl)-4-morpholinopyrido[3′,2′:4,5]furo[3,2-d]pyrimidin-2-amine] | 77 | 749 | > 10000 | 77 | – |
| c1cnc2oc3c(N4CCOCC4)nc(Nc4ccncn4)nc3c2c1 [Example 41, 4-morpholino-N-(pyrimidin-4-yl)pyrido[3′,2′:4,5]furo[3,2-d]pyrimidin-2-amine] | – | – | > 10000 | – | – |
| FC(F)(F)c1cc(Nc2nc(N3CCOCC3)c3oc4ncccc4c3n2)[nH]n1 [Example 57, 4-morpholino-N-(3-(trifluoromethyl)-1H-pyrazol-5-yl)pyrido[3′,2′:4,5]furo[3,2-d]pyrimidin-2-amine hydrochloride] | – | – | 5900 | – | – |

Further compounds by falling IC50 [1, 4], results first:

| IC50 (PI3Kδ (p110δ/p85α); [2]) [nM] | IC50 (PI3Kβ (p110β/p85α); [3]) [nM] | IC50 [1, 4] [nM] | IC50 (PI3Kα (p110α/p85α); [5]) [nM] | Compound | further results |
| --- | --- | --- | --- | --- | --- |
| 7 | 315 | 1280 | 16 | c1cnc2oc3c(N4CCOCC4)nc(Nc4cc(C5CCC5)n[nH]4)nc3c2c1 [Example 55, N-(3-cyclobutyl-1H-pyrazol-5-yl)-4-morpholinopyrido[3′,2′:4,5]furo[3,2-d]pyrimidin-2-amine hydrochloride] | – |
| – | – | 1090 | – | c1cncc(-c2cc(Nc3nc(N4CCOCC4)c4oc5ncccc5c4n3)[nH]n2)c1 [Example 31, 4-morpholino-N-(3-(pyridin-3-yl)-1H-pyrazol-5-yl)pyrido[3′,2′:4,5]furo[3,2-d]pyrimidin-2-amine hydrochloride] | – |
| 37.4 | 243 | 988 | 158 | c1ccc(CCNc2nc(N3CCOCC3)c3oc4ncccc4c3n2)cc1 [Example 21, 4-morpholino-N-phenethylpyrido[3′,2′:4,5]furo[3,2-d]pyrimidin-2-amine] | – |
| – | – | 862 | – | Brc1cnc2oc3c(N4CCOCC4)nc(Nc4cc(-c5ccccc5)[nH]n4)nc3c2c1 [Example 51, 8-bromo-4-morpholino-N-(5-phenyl-1H-pyrazol-3-yl)pyrido[3′,2′:4,5]furo[3,2-d]pyrimidin-2-amine] | – |
| – | – | 825 | – | Cc1cncc(-c2cc(Nc3nc(N4CCOCC4)c4oc5ncccc5c4n3)[nH]n2)c1 [Example 32, N-(3-(5-methylpyridin-3-yl)-1H-pyrazol-5-yl)-4-morpholinopyrido[3′,2′:4,5]furo[3,2-d]pyrimidin-2-amine hydrochloride] | – |
| – | – | 515 | – | Cc1ccccc1-c1cc(Nc2nc(N3CCOCC3)c3oc4ncccc4c3n2)[nH]n1 [Example 48, 4-morpholino-N-(3-(o-tolyl)-1H-pyrazol-5-yl)pyrido[3′,2′:4,5]furo[3,2-d]pyrimidin-2-amine] | – |
| – | – | 473 | – | Fc1ccc(-c2cc(Nc3nc(N4CCOCC4)c4oc5ncccc5c4n3)[nH]n2)cc1 [Example 1, N-(3-(4-Fluorophenyl)-1H-pyrazol-5-yl)-4-morpholinopyrido[3′,2′:4,5]furo[3,2-d]pyrimidin-2-amine hydrochloride] | – |
| – | – | 143 | – | CN(C)CCc1cnc2oc3c(N4CCOCC4)nc(Nc4cc(-c5ccccc5)n[nH]4)nc3c2c1 [Example 13, 8-(2-(Dimethylamino)ethyl)-4-morpholino-N-(3-phenyl-1H-pyrazol-5-yl)pyrido[3′,2′:4,5]furo[3,2-d]pyrimidin-2-amine] | – |
| – | – | 82 | – | c1ccc(-c2cc(Nc3nc(N4CCOCC4)c4oc5nc(OCCN6CCCC6)ccc5c4n3)[nH]n2)cc1 [Example 26, 4-morpholino-N-(3-phenyl-1H-pyrazol-5-yl)-7-(2-(pyrrolidin-1-yl)ethoxy)pyrido[3′,2′:4,5]furo[3,2-d]pyrimidin-2-amine hydrochloride] | – |
| – | – | 61 | – | c1ccc(-c2cc(Nc3nc(N4CCOCC4)c4oc5nc(OCCN6CCOCC6)ccc5c4n3)[nH]n2)cc1 [Example 24, 4-morpholino-7-(2-morpholinoethoxy)-N-(3-phenyl-1H-pyrazol-5-yl)pyrido[3′,2′:4,5]furo[3,2-d]pyrimidin-2-amine hydrochloride] | – |
| – | – | 37 | – | c1csc(-c2cc(Nc3nc(N4CCOCC4)c4oc5ncccc5c4n3)[nH]n2)c1 [Example 60, 4-morpholino-N-(3-(thiophen-2-yl)-1H-pyrazol-5-yl)pyrido[3′,2′:4,5]furo[3,2-d]pyrimidin-2-amine hydrochloride] | – |
| – | – | 17 | – | Oc1ccc2c(n1)oc1c(N3CCOCC3)nc(Nc3cc(-c4ccccc4)n[nH]3)nc12 [Example 5, 4-Morpholino-2-((3-phenyl-1H-pyrazol-5-yl)amino)pyrido[3′,2′:4,5]furo[3,2-d]pyrimidin-7-ol hydrochloride] | – |
| – | – | 14 | – | c1ccc(-c2cc(Nc3nc(N4CCOCC4)c4oc5nc(OCCCN6CCOCC6)ccc5c4n3)[nH]n2)cc1 [Example 25, 4-morpholino-7-(3-morpholinopropoxy)-N-(3-phenyl-1H-pyrazol-5-yl)pyrido[3′,2′:4,5]furo[3,2-d]pyrimidin-2-amine hydrochloride] | – |
